Results on 31 compounds are retold here after patent publication US6407094B1, “Glutamate receptor antagonists” (Hoffmann-la Roche Inc., priority 1999, dated 2002).

Some results are limits rather than exact numbers.

For `Cc1cc2c(cc1C#Cc1ccccc1)NC(=O)CC(c1cccc(C#N)c1)=N2` [Example 4, 3-(8-Methyl-4-oxo-7-phenylethynyl-4,5-dihydro-3H-benzo[b][1,4]diazepin-2-yl)-benzonitrile], the melting point was 237 to 239 °C (dec.). As to `CN1CCN(c2cc3c(cc2C#Cc2ccccc2)NC(=O)CC(c2cccc(C#N)c2)=N3)CC1` [Example 5, 3-[8-(4-Methyl-piperazin-1-yl)-4-oxo-7-phenylethynyl-4,5-dihydro-3H-benzo[b][1,4]diazepin-2-yl]-benzonitrile], the melting point is 222 to 224 °C (dec.). In the case of `N#Cc1cccc(C2=Nc3cc(N4CCS(=O)(=O)CC4)c(C#Cc4ccccc4)cc3NC(=O)C2)c1` [Example 6, 3-[8-(1,1-Dioxo-thiomorpholin-4-yl)-4-oxo-7-phenylethynyl-4,5-dihydro-3H-benzo[b][1,4]diazepin-2-yl]-benzonitrile] it was > 250 °C (dec.). Take `N#Cc1cccc(C2=Nc3cc(N4CCC5(CC4)OCCO5)c(C#Cc4ccccc4)cc3NC(=O)C2)c1` [Example 9, 3-[8-(1,4-Dioxa-8-aza-spiro[4.5]dec-8-yl)-4-oxo-7-phenylethynyl-4,5-dihydro-3H-benzo[b][1,4]diazepin-2-yl]-benzonitrile]: the melting point was 239 to 243 °C (dec.).

For the compound `CN(C)CCSc1cc2c(cc1C#Cc1ccccc1)NC(=O)CC(c1cccc(C#N)c1)=N2` [Example 11, 3-[8-(2-Dimethylamino-ethylsulfanyl)-4-oxo-7-phenylethynyl-4,5-dihydro-3H-benzo[b][1,4]diazepin-2-yl]-benzonitrile], the melting point is 197 °C (dec.).

With `N#Cc1cccc(C2=Nc3cc(SCC(=O)O)c(C#Cc4ccccc4)cc3NC(=O)C2)c1` [Example 13, [4-(3-Cyano-phenyl)-2-oxo-8-phenylethynyl-2,3-dihydro-1H-benzo[b][1,4]diazepin-7-ylsulfanyl]-acetic acid], the melting point was 202 °C (dec.). In the case of `COC(=O)Cc1cc2c(cc1C#Cc1ccccc1)NC(=O)CC(c1cccc(C#N)c1)=N2` [Example 14, [4-(3-Cyano-phenyl)-2-oxo-8-phenylethynyl-2,3-dihydro-1H-benzo[b][1,4]diazepin-7-yl]-acetic acid methyl ester], the melting point was 236 °C (dec.). As for `COCCOc1cc2c(cc1C#Cc1ccccc1)NC(=O)CC(c1cccc(C#N)c1)=N2` [Example 18, 3-[8-(2-Methoxy-ethoxy)-4-oxo-7-phenylethynyl-4,5-dihydro-3H-benzo[b][1,4]diazepin-2-yl]-benzonitrile], the melting point lay within 174 to 176 °C. As for `COC(=O)c1cc2c(cc1C#Cc1ccccc1)NC(=O)CC(c1cccc(C#N)c1)=N2` [Example 19, 4-(3-Cyano-phenyl)-2-oxo-8-phenylethynyl-2,3-dihydro-1H-benzo[b][1,4]diazepine-7-carboxylic acid methyl ester], the melting point was greater than 250 °C. For the compound `N#Cc1cccc(C2=Nc3cc(OCC(=O)O)c(C#Cc4ccccc4)cc3NC(=O)C2)c1` [Example 22, [4-(3-Cyano-phenyl)-2-oxo-8-phenylethynyl-2,3-dihydro-1H-benzo[b][1,4]diazepin-7-yloxy]-acetic acid], the melting point is 257 °C (dec.).

With `N#Cc1cccc(C2=Nc3cc(OCC(O)CO)c(C#Cc4ccccc4)cc3NC(=O)C2)c1` (stereo not shown) [Example 24, 3-[8-(2,3-Dihydroxy-propoxy)-4-oxo-7-phenylethynyl-4,5-dihydro-3H-benzo[b][1,4]diazepin-2-yl]-benzonitrile], the melting point was 230 to 234 °C (dec.). In turn, `CCOCc1cc2c(cc1C#Cc1ccccc1)NC(=O)CC(c1cccc(C#N)c1)=N2` [Example 29, 3-(8-Ethoxymethyl-4-oxo-7-phenylethynyl-4,5-dihydro-3H-benzo [b][1,4]diazepin-2-yl)-benzonitrile] gave a melting point of 229 °C. In the case of `CC(C)(C)C(=O)OCc1cc2c(cc1C#Cc1ccccc1)NC(=O)CC(c1cccc(C#N)c1)=N2` [Example 30, 2,2-Dimethyl-propionic acid 4-(3-cyano-phenyl)-2-oxo-8-phenylethynyl-2,3-dihydro-1H-benzo[b][1,4]diazepin-7-ylmethyl ester] it was 218 °C. As for `N#Cc1cccc(C2=Nc3cc(CO)c(C#Cc4ccccc4)cc3NC(=O)C2)c1` [Example 31, 3-(8-Hydroxymethyl-4-oxo-7-phenylethynyl-4,5-dihydro-3H-benzo[b][1,4]diazepin-2-yl)-benzonitrile], the figure is greater than 255 °C; as for `COC1CCN(c2cc3c(cc2C#Cc2ccccc2)NC(=O)CC(c2cccc(-n4ccnc4)c2)=N3)CC1` [Example 33, 4-(3-Imidazol-1-yl-phenyl)-7-(4-methoxy-piperidin-1-yl)-8-phenylethynyl-1,3-dihydro-benzo[b][1,4]diazepin-2-one], 222 °C; as for `COC1CCN(c2cc3c(cc2C#Cc2ccccc2)NC(=O)CC(c2cccc(C#N)c2)=N3)CC1` [Example 34, 3-[8-(4-Methoxy-piperidin-1-yl)-4-oxo-7-phenylethynyl-4,5-dihydro-3H-benzo[b][1,4]diazepin-2-yl]-benzonitrile], 250 to 251 °C. Compound `N#CCOc1cc2c(cc1C#Cc1ccccc1)NC(=O)CC(c1cccc(-n3ccnc3)c1)=N2` [Example 35, [4-(3-Imidazol-1-yl-phenyl)-2-oxo-8-phenylethynyl-2,3-dihydro-1H-benzo[b][1,4]diazepin-7-yloxy]-acetonitrile] registered a melting point of 214 °C. `N#CCOc1cc2c(cc1C#Cc1ccccc1)NC(=O)CC(c1cccc(C#N)c1)=N2` [Example 36, 3-(8-Cyanomethoxy-4-oxo-7-phenylethynyl-4,5-dihydro-3H-benzo[b][1,4]diazepin-2-yl)-benzonitrile] returned a melting point of 212 °C. Consider `CN(CCO)c1cc2c(cc1C#Cc1ccc(F)cc1)NC(=O)CC(c1cccc(-n3ccnc3)c1)=N2` [Example 38, 8-(4-Fluoro-phenylethynyl)-7-[(2-hydroxy-ethyl)-methyl-amino]-4-(3-imidazol-1-yl-phenyl)-1,3-dihydro-benzo[b][1,4]diazepin-2-one], for which the melting point was 217 °C (dec.). `O=C1CCN(c2cc3c(cc2C#Cc2ccccc2)NC(=O)CC(c2cccc(-n4ccnc4)c2)=N3)CC1` [Example 39, 4-(3-Imidazol-1-yl-phenyl)-7-(4-oxo-piperidin-1-yl)-8-phenylethynyl-1,3-dihydro-benzo[b][1,4]diazepin-2-one]: the melting point is 231 °C (dec.). In the case of `CC(C)(C)NC(=O)COc1cc2c(cc1C#Cc1ccccc1)NC(=O)CC(c1cccc(C#N)c1)=N2` [Example 40, N-tert.-Butyl-2-[4-(3-cyano-phenyl)-2-oxo-8-phenylethynyl-2,3-dihydro-1H-benzo[b][1,4]diazepin-7-yloxy]-acetamide] it was greater than 250 °C; in that of `CONC(=O)COc1cc2c(cc1C#Cc1ccccc1)NC(=O)CC(c1cccc(C#N)c1)=N2` [Example 41, 2-[4-(3-Cyano-phenyl)-2-oxo-8-phenylethynyl-2,3-dihydro-1H-benzo[b][1,4]diazepin-7-yloxy]-N-methoxy-acetamide], greater than 250 °C; in that of `O=C1CC(c2cccc(-n3ccnc3)c2)=Nc2cc(N3CCC(O)CC3)c(-c3ccc(F)cc3)cc2N1` [Example 43, 8-(4-Fluoro-phenyl)-7-(4-hydroxy-piperidin-1-yl)-4-(3-imidazol-1-yl-phenyl)-1,3-dihydro-benzo[b][1,4]diazepin-2-one], 238 to 240 °C.

For the compound `O=C1CC(c2cccc(-n3ccnc3)c2)=Nc2cc(OCCO)c(C#Cc3ccc(F)cc3)cc2N1` [Example 44, 8-(4-Fluoro-phenylethynyl)-7-(2-hydroxy-ethoxy)-4-(3-imidazol-1-yl-phenyl)-1,3-dihydro-benzo[b][1,4]diazepin-2-one], the melting point fell in the range of 220 to 222 °C. `O=C1CC(c2cccc(-n3ccnc3)c2)=Nc2cc(CO)c(-c3ccc(F)cc3)cc2N1` [Example 46, 8-(4-Fluoro-phenyl)-7-hydroxymethyl-4-(3-imidazol-1-yl-phenyl)-1,3-dihydro-benzo[b][1,4]diazepin-2-one] registered a melting point of 180 to 195 °C.

`N#CCOc1cc2c(cc1-c1ccc(F)cc1)NC(=O)CC(c1cccc(-n3ccnc3)c1)=N2` [Example 47, [8-(4-Fluoro-phenyl)-4-(3-imidazol-1-yl-phenyl)-2-oxo-2,3-dihydro-1H-benzo[b][1,4]diazepin-7-yloxy]-acetonitrile] gave a melting point of 164 °C.

Regarding `CN(C)Cc1cc2c(cc1-c1ccc(F)cc1)NC(=O)CC(c1cccc(-n3ccnc3)c1)=N2` [Example 48, 7-Dimethylaminomethyl-8-(4-fluoro-phenyl)-4-(3-imidazol-1-yl-phenyl)-1,3-dihydro-benzo[b][1,4]diazepin-2-one], the melting point was 115 to 140 °C (dec.). Take `CC1(C)OC2CN(c3cc4c(cc3-c3ccc(F)cc3)NC(=O)CC(c3cccc(-n5ccnc5)c3)=N4)CC2O1` (stereo not shown) [Example 49, 7-(2,2-Dimethyl-tetrahydro-[1,3]dioxolo [4,5-c]pyrrol-5-yl)-8-(4-fluoro-phenyl)-4-(3-imidazol-1-yl-phenyl)-1,3-dihydro-benzo[b][1,4]diazepin-2-one]: the melting point was 240 °C (dec.). As for `O=C1CC(c2cccc(-n3ccnc3)c2)=Nc2cc(N3C[C@@H](O)[C@@H](O)C3)c(-c3ccc(F)cc3)cc2N1` [Example 50, 7-(cis-3,4-Dihydroxy-pyrrolidin-1-yl)-8-(4-fluoro-phenyl)-4-(3-imidazol-1-yl-phenyl)-1,3-dihydro-benzo[b][1,4]diazepin-2-one], the figure is 244 °C; as for `COc1cc2c(cc1-c1ccc(F)cc1)NC(=O)CC(c1cccc(-n3ccnc3)c1)=N2` [Example 51, 8-(4-Fluoro-phenyl)-4-(3-imidazol-1-yl-phenyl)-7-methoxy-1,3-dihydro-benzo[b][1,4]diazepin-2-one], 221 °C (dec.); as for `O=C1CCN(c2cc3c(cc2-c2ccc(F)cc2)NC(=O)CC(c2cccc(-n4ccnc4)c2)=N3)CC1` [Example 52, 8-(4-Fluoro-phenyl)-4-(3-imidazol-1-yl-phenyl)-7-(4-oxo-piperidin-1-yl)-1,3-dihydro-benzo[b][1,4]diazepin-2-one], 204 °C.

A word on the melting point: it is the temperature, or range, at which the solid turns liquid.
